These results are taken from patent US20220017512A1 (SHANGHAI ENNOVABIO PHARMACEUTICALS CO., LTD., priority 2018, published 2022).

In general, IC50 refers to the concentration needed to halve the response being measured. As usually defined, the Cmax is the highest concentration seen after dosing. What is called half-life is the time needed for the level to fall by half in the phase considered.

One series addresses T1, ΔTRKA(G595R) (Homo sapiens, UniProt P04629, G595R, form not given).
T1 construct: NIH-3T3 cell line stably expressing ΔTRKA or ΔTRKA(G595R) was constructed by plasmid transfection
Nature of the series: Detection of TRK kinase activity on cellular level by ELISA, ΔTRKA(G595R)/NIH-3T3 cells. It is filed as cell-based. As to conditions: NIH-3T3 cells stably expressing ΔTRKA(G595R), 2 hours treatment. As for the experimental part: Biological Test Example 4: Detection of TRK Kinase Activity on Cellular Level by ELISA
NIH-3T3 cell line stably expressing ΔTRKA or ΔTRKA(G595R) was constructed by plasmid transfection.
On the first day, cells were seeded into a 96-well cell culture plate, 10000 cells/well in the medium (DMEM+10% FBS). On the second day, different concentrations of test compounds were added to treat cells for 2 hours, then the cell culture plate was placed on ice; and the supernatant was removed and washed with pre-cooled PBS once. The cells were lysed with NP40 lysis buffer containing protease and phosphatase inhibitor, transferred to an antibody pre-coated plate, and sealed to incubate overnight at 4° C. The remaining steps were proceeded according to the method provided in the ELISA kit (eg, as described in R&D DYC2578-2), results were shown in Table 2.
(An ELISA detects its analyte on a solid surface through an enzyme-linked reagent.)

The target of series [1] is T2, recombinant human TRKA (G667C) (Homo sapiens, UniProt P04629, G667C).
T2 construct: purchased SignalChem
T2 sequence (P04629 33-796 G667C): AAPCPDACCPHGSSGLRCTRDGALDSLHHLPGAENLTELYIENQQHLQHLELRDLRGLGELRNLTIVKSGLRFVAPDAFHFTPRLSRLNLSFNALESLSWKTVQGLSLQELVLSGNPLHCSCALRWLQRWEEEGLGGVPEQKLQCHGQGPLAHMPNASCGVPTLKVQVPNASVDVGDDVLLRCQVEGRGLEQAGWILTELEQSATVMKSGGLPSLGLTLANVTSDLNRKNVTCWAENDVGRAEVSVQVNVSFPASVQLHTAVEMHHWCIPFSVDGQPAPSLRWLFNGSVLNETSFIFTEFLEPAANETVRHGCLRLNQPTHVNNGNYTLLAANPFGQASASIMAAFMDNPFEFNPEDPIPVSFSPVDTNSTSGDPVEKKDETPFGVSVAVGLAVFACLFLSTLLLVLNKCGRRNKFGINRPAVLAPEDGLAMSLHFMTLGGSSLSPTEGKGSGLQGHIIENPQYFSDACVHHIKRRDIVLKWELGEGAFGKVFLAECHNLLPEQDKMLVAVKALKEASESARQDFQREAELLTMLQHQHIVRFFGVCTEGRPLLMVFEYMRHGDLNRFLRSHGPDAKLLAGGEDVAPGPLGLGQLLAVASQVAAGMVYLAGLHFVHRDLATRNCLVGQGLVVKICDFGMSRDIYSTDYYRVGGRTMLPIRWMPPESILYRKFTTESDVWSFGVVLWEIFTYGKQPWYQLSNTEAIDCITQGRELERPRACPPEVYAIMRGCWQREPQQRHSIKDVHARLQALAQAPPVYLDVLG
Nature of the series: In vitro activity test on mutant TRKA (G667C) (HTRF KinEASE TK). Type of series: biochemical. To be noted: 5.5 μM ATP, 30 min. Summed up: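 HTRF KinEASE TK format with recombinant human TRKA G667C (0.026 ng/μL), 1 μM biotinylated TK substrate, 5.5 […] ATP, 5 mM MgCl2, 1 mM DTT, 1% DMSO; 30 min at room temperature. Detection overnight; 665/620 ratio gives % inhibition, IC50 from 4-parameter fit over 10 doses (1 μM–0.004 nM).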
(In TR-FRET formats the signal depends on donor and acceptor labels being close together.)

The target in series [2] is T3, recombinant human TRKA (G595R) (Homo sapiens, UniProt P04629, G595R).
T3 construct: purchased SignalChem
T3 sequence (P04629 33-796 G595R): as the sequence (P04629 33-796 G667C) above, with G563R, C635G counted along it
Description: In vitro activity test on mutant TRKA (G595R) (HTRF KinEASE TK). It is filed as biochemical. To be noted: 4.5 μM ATP, 30 min. The method, boiled down:
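HTRF KinEASE TK format: 0.12 ng/μL recombinant TRKA (G595R), 1 μM biotinylated TK substrate, 4.5 μM ATP, 5 mM MgCl2, 1 mM DTT, 1% DMSO, 30 min at room temperature; detection overnight. IC50 from 10-point 4-fold series (1 μM to 0.004 nM, duplicates), 665/620 ratio, 4-parameter fit.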

The next series addresses T4, Recombinant human TRKC (Homo sapiens, UniProt Q16288).
T4 construct: purchased Carna Biosciences
Description: In vitro activity test on TRKC kinase (HTRF KinEASE TK). It is filed as biochemical. As to conditions: 25.64 μM ATP, 40 min. The method, boiled down:
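Recombinant human TRKC (0.037 ng/μL) with 1 μM biotinylated TK substrate, 25.64 μM ATP, 5 mM MgCl2, 1 mM DTT, 40 min at room temperature; compound 1 μM to 0.05 nM, 1% DMSO. HTRF 665/620 ratio after overnight detection; IC50 from 4-parameter fit.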

The next series has as its target T5, Recombinant human TRKB (Homo sapiens, UniProt Q16620).
T5 construct: purchased Carna Biosciences
Description: In vitro activity test on TRKB kinase (HTRF KinEASE TK). Type of series: biochemical. To be noted: 4.77 μM ATP, 50 min. The method, boiled down: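 Recombinant human TRKB (0.037 ng/μL) phosphorylated 1 μM biotinylated TK substrate at 4.77 μM ATP, 5 mM MgCl2, 1% DMSO, 50 min at room temperature; compounds 1 μM–0.05 nM. HTRF KinEASE detection overnight; 665/620 ratio converted to inhibition and IC50 from 4-parameter fit.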

In the next series the test system is KM12-LUC cells. Description: KM12-LUC cell proliferation experiment (CellTiter-Glo, 72 hours). As to conditions: Homo sapiens; KM12-LUC cells expressing TPM3-NTRK1 fusion gene. It is filed as cell-based. The source says: Biological Test Example 3: KM12-LUC Cell Proliferation Experiment
Human colon cancer cell line KM12-LUC (LUC, stably expressing Luciferase) expressing TPM3-NTRK1 fusion gene was used to evaluate cellular activity of the compounds cellular level. The TRK fusion gene in KM12-LUC cells makes it independent on the stimulation of extracellular growth factor, sustainably self-activate and activate the downstream signal pathway associated with cell proliferation such as MAPK-ERK, PI3K-AKT, or the like. […] The method was as follows: On the first day, the cells were seeded into 384-well plates at 2,000 cells/well; on the second day, different concentrations of test compounds were added; and on the 5th day, CellTiter-Glo (Promega) was added to detect cellular potency, and 72 hours cell proliferation inhibition rate was calculated. Statistical analysis was carried out by Prism5 and the inhibition rate of the test compound were calculated, as shown in FIG. 1.
In general terms: Cellular ATP, detected with luciferase, serves as a proxy for viable cell number.

The target in the next series is T6, Recombinant human TRKA (Homo sapiens, UniProt P04629).
T6 construct: purchased Carna Biosciences
T6 sequence (P04629 33-796): as the sequence (P04629 33-796 G667C) above, with C635G counted along it
Description: In vitro activity test on TRKA kinase (HTRF KinEASE TK). Type of series: biochemical. As to conditions: 14.68 μM ATP, 40 min. Summed up:
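Reaction: 0.2 ng/μL TRKA, 1 μM biotinylated TK substrate, 14.68 μM ATP, 5 mM MgCl2, 1 mM DTT, 1% DMSO, 40 min at room temperature. Compounds tested at 1 μM to 0.05 nM (10-point, 3-fold, duplicate). HTRF 665/620 ratio converted to % inhibition versus no-compound control; IC50 by 4-parameter fit.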

A short description of series [3]: Pharmacokinetics experiment in mice. It is filed as in vivo, ICR mice. To be noted: mouse, 5 mg/kg; for Cmax / half-life / AUC(0-t): ICR, plasma, po; for AUC(0-t) / F: p.o.; for AUC(0-t): read-out: AUC0-24 hr. As for the experimental part: Biological Test Example 6: Pharmacokinetics Experiment of Small Molecular Inhibitors of the Present Invention in Mice
Tested compounds were administered to ICR mice via intravenous administration (IV) and para-oral (PO) administration, and blood samples were taken at different time points. The concentration of the tested article in mouse plasma was measured by LC-MS/MS, and relevant parameters were calculated. Specifically, a desired amount of a compound to be tested was taken and formulated in 5% DMSO+10% Solutol+85% injection water to form a solution at desired concentration for intravenous administration or para-oral administration. Animals were about 6-8 weeks old when the administration experiment started. Blood collection time for intravenous administration: 0.083 h, 0.25 h, 0.5 h, 1 h, 2 h, 4 h, 8 h, and 24 h after administration. Blood collection time for oral administration: 0.25 h, 0.5 h, 1 h, 2 h, 4 h, 6 h, 8 h and 24 h after administration. The biological sample analysis method and sample detection method were established. The pharmacokinetic parameters were calculated using Phoenix Winnonlin 7.0 software according to plasma concentration data at different time points, such as AUC(0-t), AUC(0-∞), T½, Cmax, Tmax, and MRT.

T5 sequence (Q16620 32-822): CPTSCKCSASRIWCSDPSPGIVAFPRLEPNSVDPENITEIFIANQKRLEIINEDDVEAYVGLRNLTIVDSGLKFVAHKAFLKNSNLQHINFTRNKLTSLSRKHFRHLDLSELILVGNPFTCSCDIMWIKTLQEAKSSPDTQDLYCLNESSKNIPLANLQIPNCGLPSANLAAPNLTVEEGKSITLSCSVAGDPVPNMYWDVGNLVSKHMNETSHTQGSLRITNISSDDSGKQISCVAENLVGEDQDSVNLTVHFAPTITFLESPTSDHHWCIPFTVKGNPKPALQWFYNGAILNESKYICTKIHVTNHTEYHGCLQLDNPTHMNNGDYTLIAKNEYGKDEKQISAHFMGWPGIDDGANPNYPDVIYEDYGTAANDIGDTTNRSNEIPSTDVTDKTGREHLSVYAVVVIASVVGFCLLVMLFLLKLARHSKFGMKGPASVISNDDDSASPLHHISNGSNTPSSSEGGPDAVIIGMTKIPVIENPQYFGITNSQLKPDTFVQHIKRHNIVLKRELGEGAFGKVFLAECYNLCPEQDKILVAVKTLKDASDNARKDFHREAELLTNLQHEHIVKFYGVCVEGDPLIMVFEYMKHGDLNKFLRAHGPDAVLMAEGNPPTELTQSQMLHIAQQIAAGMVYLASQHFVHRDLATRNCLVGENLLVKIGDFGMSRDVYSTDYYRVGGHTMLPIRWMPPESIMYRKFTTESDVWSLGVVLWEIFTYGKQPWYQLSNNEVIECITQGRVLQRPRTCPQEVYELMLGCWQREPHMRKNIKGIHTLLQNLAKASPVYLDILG
T4 sequence (Q16288 32-839): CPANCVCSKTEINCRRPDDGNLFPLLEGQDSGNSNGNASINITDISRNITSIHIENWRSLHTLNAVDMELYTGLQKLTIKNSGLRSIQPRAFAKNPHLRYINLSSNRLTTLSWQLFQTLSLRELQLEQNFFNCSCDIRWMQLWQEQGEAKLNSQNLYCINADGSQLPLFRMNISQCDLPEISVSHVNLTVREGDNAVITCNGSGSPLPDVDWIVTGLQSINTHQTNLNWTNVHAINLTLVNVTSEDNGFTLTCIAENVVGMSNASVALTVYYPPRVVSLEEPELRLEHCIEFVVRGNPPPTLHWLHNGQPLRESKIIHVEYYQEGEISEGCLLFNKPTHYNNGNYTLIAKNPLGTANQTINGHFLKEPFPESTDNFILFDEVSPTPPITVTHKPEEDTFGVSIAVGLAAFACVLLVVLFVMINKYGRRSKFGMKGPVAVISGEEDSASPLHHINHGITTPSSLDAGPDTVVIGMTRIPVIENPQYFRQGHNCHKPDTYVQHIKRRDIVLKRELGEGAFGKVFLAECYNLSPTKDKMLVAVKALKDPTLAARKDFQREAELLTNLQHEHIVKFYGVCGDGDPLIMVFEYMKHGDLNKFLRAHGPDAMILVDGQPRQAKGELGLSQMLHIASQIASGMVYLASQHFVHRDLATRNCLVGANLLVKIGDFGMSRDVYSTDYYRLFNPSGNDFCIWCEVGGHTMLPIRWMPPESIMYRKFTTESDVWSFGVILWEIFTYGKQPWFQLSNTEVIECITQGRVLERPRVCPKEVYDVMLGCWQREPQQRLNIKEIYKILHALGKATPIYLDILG
T1 sequence (P04629 440-796 G595R limits assumed, form open): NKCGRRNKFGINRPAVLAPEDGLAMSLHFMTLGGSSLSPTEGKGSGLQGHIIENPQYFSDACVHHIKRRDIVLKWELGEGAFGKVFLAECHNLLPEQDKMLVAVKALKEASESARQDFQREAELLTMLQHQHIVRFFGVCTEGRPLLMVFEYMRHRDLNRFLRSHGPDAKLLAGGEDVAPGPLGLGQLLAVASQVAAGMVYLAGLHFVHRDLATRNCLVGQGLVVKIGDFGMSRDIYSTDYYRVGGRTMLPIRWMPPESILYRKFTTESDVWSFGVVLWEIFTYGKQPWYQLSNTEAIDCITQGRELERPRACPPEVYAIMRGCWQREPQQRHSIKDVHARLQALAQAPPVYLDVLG

As for `Fc1ccc(F)c([C@H]2CCCN2c2ccc3nccc(-c4cnn(C5CCNCC5)c4)c3n2)c1` [Example 7, (R)-2-(2-(2,5-Difluorophenyl)pyrrolidin-1-yl)-8-(1-(piperidin-4-yl)-1H-pyrazol-4-yl)-1,5-naphthyridine], the IC50 is below 0.01 µM against ΔTRKA(G595R); below 0.001 µM in series [1]; below 0.001 µM in series [2]; below 0.05 µM at Recombinant human TRKC; below 0.1 µM at Recombinant human TRKB; below 0.01 µM in the series with KM12-LUC cells. For the same compound, the half-maximal inhibitory concentration (IC50) on Recombinant human TRKA was below 0.05 µM.
For `Fc1ccc(F)c([C@H]2C[C@H](F)CN2c2ccc3ncc(Cl)c(-c4cnn(C5CCNCC5)c4)c3n2)c1` [Example 16, 7-chloro-2-((2R,4S)-2-(2,5-difluorophenyl)-4-fluoropyrrolidin-1-yl)-8-(1-(piperidin-4-yl)-1H-pyrazol-4-yl)-1,5-naphthyridine], the IC50 in series [1] was below 0.001 µM; in series [2] it was below 0.01 µM; on Recombinant human TRKC, below 0.001 µM; on Recombinant human TRKB, below 0.001 µM; on Recombinant human TRKA, below 0.001 µM. The same compound showed a Cmax in series [3] of 714 ng/mL. In series [3], this compound showed a half-life of 2.34 h. Further, the AUC(0-t) in series [3] is 3230 ng·h/mL. Besides, in series [3], the F worked out at 107%.
As to `Fc1ccc(F)c([C@H]2C[C@H](F)CN2c2ccc3ncc(F)c(-c4cnn(C5CCNCC5)c4)c3n2)c1` [Example 20], the IC50 (in series [1]; in series [2]; at Recombinant human TRKC; on Recombinant human TRKB; on Recombinant human TRKA) was below 0.001 µM throughout. In series [3], this compound had a Cmax of 448 ng/mL. Besides, the half-life in series [3] was 2.82 h. In addition, the AUC(0-t) in series [3] turned out to be 2700 ng·h/mL. The F in series [3] is given as 144%.
For the compound `[2H]c1nc(-c2cnn(C3CCNCC3)c2)c2nc(N3C[C@@H](F)C[C@@H]3c3cc(F)ccc3F)ccc2n1` [Example 58], the IC50 is below 0.01 µM on ΔTRKA(G595R); below 0.001 µM in series [1]; below 0.001 µM in series [2]; below 0.001 µM at Recombinant human TRKC; below 0.01 µM on Recombinant human TRKB; below 0.01 µM with KM12-LUC cells. Moreover, on Recombinant human TRKA, the IC50 was below 0.001 µM.
As to `Fc1ccc(F)c([C@H]2C[C@H](F)CN2c2ccc3ncc(Cl)c(-c4ccc(C5CCNCC5)nc4)c3n2)c1` [Example 63, 7-chloro-2-((2R,4S)-2-(2,5-difluorophenyl)-4-fluoropyrrolidin-1-yl)-8-(6-(piperidin-4-yl)pyridin-3-yl)-1,5-naphthyridine], the IC50 was below 0.01 µM against ΔTRKA(G595R); below 0.01 µM in series [2]; below 0.01 µM on Recombinant human TRKC; below 0.01 µM on Recombinant human TRKB; below 0.01 µM in the series with KM12-LUC cells; below 0.001 µM at Recombinant human TRKA.
`O[C@@H]1CCN(c2ccc(-c3c(Cl)cnc4ccc(N5C[C@@H](F)C[C@@H]5c5cc(F)ccc5F)nc34)cn2)C1` [Example 65, (R)-1-(5-(3-chloro-6-((2R,4S)-2-(2,5-difluorophenyl)-4-fluoropyrrolidin-1-yl)-1,5-naphthyridin-4-yl)pyridin-2-yl)pyrrolidin-3-ol]: the IC50 (at ΔTRKA(G595R); in series [1]; in series [2]; on Recombinant human TRKC; on Recombinant human TRKB; with KM12-LUC cells) was below 0.01 µM throughout. Moreover, the IC50 at Recombinant human TRKA was below 0.001 µM.
For the compound `O=C1CNCCN1c1ccc(-c2c(F)cnc3ccc(N4C[C@@H](F)C[C@@H]4c4cc(F)ccc4F)nc23)cn1` [Example 97, 1-(5-(6-((2R,4S)-2-(2,5-difluorophenyl)-4-fluoropyrrolidin-1-yl)-3-fluoro-1,5-naphthyridin-4-yl)pyridin-2-yl)piperazin-2-one], the IC50 on Recombinant human TRKC is below 0.001 µM; at Recombinant human TRKB it was below 0.01 µM; in the series on KM12-LUC cells it was below 0.01 µM; on Recombinant human TRKA, below 0.001 µM.
